Data from patent US20030109532A1, “Modulators of dopamine neurotransmission” (priority 2002, published 2003).
Where a name gives a salt, the structure may show the parent alone.

Assays:
rats = experiment: In vivo test: behavior, spontaneous motor activity (distance traveled in motility meter); design: species or system rat; conditions: n=4; for motoractivity in the behavioral assay: 100 μmol/kg s.c., 0-60 min
[1] = tested on: 3,4-dihydroxyphenylacetic acid (DOPAC) in the striatum; experiment: In vivo test: neurochemistry, 3,4-dihydroxyphenylacetic acid (DOPAC) in the striatum; design: species or system rat; conditions: 100 μmol/kg s.c., n=4
From the text: (§1) In vivo Test: Neurochemistry
(§2) After the behavioral activity sessions the rats were decapitated and their brains rapidly taken out and put on an ice-cold petri-dish. The limbic forebrain, the striatum, the frontal cortex and the remaining hemispheral parts of each rat were dissected and frozen. Each brain part was subsequently analyzed with respect to its content of monoamines and their metabolites. The monoaminergic indices analyzed were dopamine (DA), 3,4-dihydroxyphenylacetic acid (DOPAC), homovanillic acid (HVA), 3-methoxytyramine (3-MT), serotonin (5-HT), 5-hydroxyindole acetic acid (5-HIAA), and noradrenaline (NA). All monoaminergic indices in the dissected tissue were analyzed by means of HPLC with electrochemical detection as described by Svensson K, et al., 1986, NaunynSchmiedeberg's Arch Pharmacol 334: 234-245 and references cited therein.

[2] = tested on: serotonin in the striatum; experiment: In vivo test: neurochemistry, serotonin (5-HT) in the striatum; design: species or system rat; conditions: n=4
From the text: as §1, §2

[3] = tested on: rats pretreated with d-amphetamine; experiment: In vivo test: behavior, d-amphetamine induced hyperactivity; design: species or system rat; conditions: 100 μmol/kg s.c.; d-amphetamine 1.5 mg/kg s.c. pretreatment, n=4

## CCCN1[C@H](C)CN(c2cccc(S(C)(=O)=O)c2)C[C@@H]1C (as salt: HCl) [Example 3, cis-4-(3-Methanesulfonyl-phenyl)-2,6-dimethyl-1-propyl-piperazine]
other
  melting point: 233 °C

## CCCN1CC[C@H](c2cccc(S(C)(=O)=O)c2)[C@H](C)C1 (relative stereo) (as salt: HCl) [Example 4, cis-4-(3-Methanesulfonyl-phenyl)-3-methyl-1-propyl-piperidine]
other
  melting point: 197 °C

## CCCN1CC[C@H](c2cccc(S(C)(=O)=O)c2)[C@H](C)C1 (relative stereo) [Example 4, cis-4-(3-Methanesulfonyl-phenyl)-3-methyl-1-propyl-piperidine]
rats
  motoractivity in the behavioral assay: 4948±577 cm/60 min
[1]
  3,4-dihydroxy-phenylacetic acid in the striatum: 1884±98 ng/g tissue

## CCCN1CCN(c2cccc(C(F)(F)F)c2)CC1 [1-propyl-4-(3-triflouro-methyl-phenyl)-piperazine, reference compound]
[2]; 50 μmol/kg s.c.
  serotonin in the striatum: 308±18 ng/g tissue
rats; 50 μmol/kg s.c.
  motoractivity in the behavioral assay (behavioral inhibition): 271±137 cm/60 min

## CCCN1[C@H](C)CN(c2cccc(C(F)(F)F)c2)C[C@@H]1C [Example 2, cis-2,6-Dimethyl-1-propyl-4-(3-trifluoro-methyl-phenyl)-piperazine]
[2]; 100 μmol/kg s.c.
  serotonin in the striatum: 419±23 ng/g tissue
rats
  motoractivity in the behavioral assay: 3619±483 cm/60 min
[1]
  3,4-dihydroxy-phenylacetic acid in the striatum: 1388±60 ng/g tissue

## CCCN1[C@H](C)CN(c2cccc(S(C)(=O)=O)c2)C[C@@H]1C [Example 3, cis-4-(3-Methanesulfonyl-phenyl)-2,6-dimethyl-1-propyl-piperazine]
[3]
  d-amphetamine induced hyperactivity: 2492±530 cm/60 min
rats; 100 μmol/kg, 30-60 min post injection
  motor activity: 253±73 cm/30 min
[1]
  3,4-dihydroxy-phenylacetic acid in the striatum: 3140±169 ng/g tissue
